Laboratory results: PMC12152147, “DDB1 engagement defines the selectivity of S656 analogs for cyclin K degradation over CDK inhibition” (EMBO Reports, 2025)
Values joined by “and” are separate entries in the source; they are usually repeats but may differ in a detail not shown here. Equal entries are not always repeated. Where two headings read alike, the source gives them in different places.

Columns and labels:
[1] = tested on: OCI-AML5 cells expressing shRNA targeting CUL4A or CUL4B; assay: Dose response in OCI-AML5 expressing shRNAs targeting CUL4A, CUL4B or control; type: cell-based, H. sapiens
[2] = molecular target: T1, CDK9/CyclinT (Homo sapiens, UniProt P50750); assay: CDK9/CyclinT in vitro kinase activity, single concentration 1 μM; type: biochemical
T1 construct: purchased BPS Bioscience 79628
T1 sequence (P50750 whole entry): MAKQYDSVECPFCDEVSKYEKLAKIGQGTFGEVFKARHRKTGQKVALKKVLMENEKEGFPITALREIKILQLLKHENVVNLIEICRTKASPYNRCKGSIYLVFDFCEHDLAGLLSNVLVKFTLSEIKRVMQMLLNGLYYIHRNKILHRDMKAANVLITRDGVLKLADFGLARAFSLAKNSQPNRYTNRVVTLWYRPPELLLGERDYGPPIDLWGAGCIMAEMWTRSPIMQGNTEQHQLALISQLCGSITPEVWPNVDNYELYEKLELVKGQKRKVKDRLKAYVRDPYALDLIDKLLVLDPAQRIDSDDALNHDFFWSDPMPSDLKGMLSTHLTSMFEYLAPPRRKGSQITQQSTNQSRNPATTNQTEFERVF
T1 sequence (O60563 whole entry partner): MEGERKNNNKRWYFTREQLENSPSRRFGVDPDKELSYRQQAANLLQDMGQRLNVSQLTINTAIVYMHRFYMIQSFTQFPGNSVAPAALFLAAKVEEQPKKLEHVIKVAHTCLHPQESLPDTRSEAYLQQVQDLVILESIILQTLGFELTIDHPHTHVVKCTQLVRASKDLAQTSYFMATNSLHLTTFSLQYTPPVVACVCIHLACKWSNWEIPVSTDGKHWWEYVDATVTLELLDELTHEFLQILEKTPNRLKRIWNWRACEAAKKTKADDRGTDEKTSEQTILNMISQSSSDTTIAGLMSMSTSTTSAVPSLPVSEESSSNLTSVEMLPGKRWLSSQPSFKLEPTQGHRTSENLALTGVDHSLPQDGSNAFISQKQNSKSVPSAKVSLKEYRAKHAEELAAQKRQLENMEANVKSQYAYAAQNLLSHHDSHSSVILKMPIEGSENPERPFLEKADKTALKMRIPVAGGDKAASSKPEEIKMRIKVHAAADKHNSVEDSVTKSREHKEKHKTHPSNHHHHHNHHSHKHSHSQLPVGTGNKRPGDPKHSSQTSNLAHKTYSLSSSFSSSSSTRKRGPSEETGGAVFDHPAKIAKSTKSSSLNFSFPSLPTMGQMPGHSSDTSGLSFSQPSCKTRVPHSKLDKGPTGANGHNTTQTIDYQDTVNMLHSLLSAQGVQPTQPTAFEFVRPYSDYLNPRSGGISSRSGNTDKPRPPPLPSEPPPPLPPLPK
Description: (§1) Kinase activity was assessed using the kinase assay kits from BPS Bioscience for CDK1, CDK9 and CDK12 with Kinase Glo MAX in duplicates. Compounds were tested at a single concentration of 1 μM for CDK1 and CDK9 activity, and in a dilution ranging from 0.64 nM to 50 μM for CDK12 activity. Chemiluminescence was read using the Neo Synergy BioTek plate reader.

[3] = tested on: OCI-AML5 cells; assay: Dose-response proliferative assay in OCI-AML5 (4 days, CellTiterGlo); type: cell-based, H. sapiens
Outline: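 Viability assessed after 4 days of compound exposure at 37 °C, 5% CO2. Compounds tested as 8 dilutions (1:4, 10 μM to 0.5 nM) on 300 OCI-AML5 cells/well grown in αMEM with 10% heat-inactivated FBS and 10 ng/mL GM-CSF.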

[4] = molecular target: T2, CDK1 (Homo sapiens, UniProt P06493); assay: CDK1 in vitro kinase activity, single concentration 1 μM; type: biochemical
T2 construct: purchased BPS Bioscience 79597
T2 sequence (P06493 whole entry): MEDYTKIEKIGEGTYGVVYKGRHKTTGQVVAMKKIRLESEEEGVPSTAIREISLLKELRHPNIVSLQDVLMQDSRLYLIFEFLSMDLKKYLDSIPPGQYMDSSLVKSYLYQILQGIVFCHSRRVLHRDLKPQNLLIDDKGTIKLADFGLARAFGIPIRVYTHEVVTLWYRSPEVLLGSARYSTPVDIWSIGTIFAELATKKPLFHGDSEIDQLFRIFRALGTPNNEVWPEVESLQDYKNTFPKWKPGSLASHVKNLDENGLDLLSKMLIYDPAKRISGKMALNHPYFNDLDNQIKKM
T2 sequence (P14635 whole entry partner): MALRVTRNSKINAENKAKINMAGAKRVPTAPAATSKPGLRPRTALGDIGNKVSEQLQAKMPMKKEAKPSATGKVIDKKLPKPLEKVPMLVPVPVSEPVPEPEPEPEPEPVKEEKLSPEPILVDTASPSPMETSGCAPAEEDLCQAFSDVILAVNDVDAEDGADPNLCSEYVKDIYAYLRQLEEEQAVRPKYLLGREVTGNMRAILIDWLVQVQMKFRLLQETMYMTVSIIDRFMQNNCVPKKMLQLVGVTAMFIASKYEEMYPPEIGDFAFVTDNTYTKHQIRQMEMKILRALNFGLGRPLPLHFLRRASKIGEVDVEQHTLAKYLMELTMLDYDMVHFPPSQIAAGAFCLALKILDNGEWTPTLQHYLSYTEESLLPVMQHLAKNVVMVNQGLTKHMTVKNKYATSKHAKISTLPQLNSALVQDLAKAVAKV
Description: as §1

[5] = molecular target: T3, CDK12/Cyclin K (Homo sapiens, UniProt Q9NYV4); assay: CDK12/CyclinK in vitro kinase assay (BPS kit, Kinase Glo MAX); type: biochemical; details: for in vitro inhibition of CDK12/Cyclin K activity: in % (unit assumed)
T3 construct: purchased BPS Bioscience 78298
T3 sequence (Q9NYV4 whole entry): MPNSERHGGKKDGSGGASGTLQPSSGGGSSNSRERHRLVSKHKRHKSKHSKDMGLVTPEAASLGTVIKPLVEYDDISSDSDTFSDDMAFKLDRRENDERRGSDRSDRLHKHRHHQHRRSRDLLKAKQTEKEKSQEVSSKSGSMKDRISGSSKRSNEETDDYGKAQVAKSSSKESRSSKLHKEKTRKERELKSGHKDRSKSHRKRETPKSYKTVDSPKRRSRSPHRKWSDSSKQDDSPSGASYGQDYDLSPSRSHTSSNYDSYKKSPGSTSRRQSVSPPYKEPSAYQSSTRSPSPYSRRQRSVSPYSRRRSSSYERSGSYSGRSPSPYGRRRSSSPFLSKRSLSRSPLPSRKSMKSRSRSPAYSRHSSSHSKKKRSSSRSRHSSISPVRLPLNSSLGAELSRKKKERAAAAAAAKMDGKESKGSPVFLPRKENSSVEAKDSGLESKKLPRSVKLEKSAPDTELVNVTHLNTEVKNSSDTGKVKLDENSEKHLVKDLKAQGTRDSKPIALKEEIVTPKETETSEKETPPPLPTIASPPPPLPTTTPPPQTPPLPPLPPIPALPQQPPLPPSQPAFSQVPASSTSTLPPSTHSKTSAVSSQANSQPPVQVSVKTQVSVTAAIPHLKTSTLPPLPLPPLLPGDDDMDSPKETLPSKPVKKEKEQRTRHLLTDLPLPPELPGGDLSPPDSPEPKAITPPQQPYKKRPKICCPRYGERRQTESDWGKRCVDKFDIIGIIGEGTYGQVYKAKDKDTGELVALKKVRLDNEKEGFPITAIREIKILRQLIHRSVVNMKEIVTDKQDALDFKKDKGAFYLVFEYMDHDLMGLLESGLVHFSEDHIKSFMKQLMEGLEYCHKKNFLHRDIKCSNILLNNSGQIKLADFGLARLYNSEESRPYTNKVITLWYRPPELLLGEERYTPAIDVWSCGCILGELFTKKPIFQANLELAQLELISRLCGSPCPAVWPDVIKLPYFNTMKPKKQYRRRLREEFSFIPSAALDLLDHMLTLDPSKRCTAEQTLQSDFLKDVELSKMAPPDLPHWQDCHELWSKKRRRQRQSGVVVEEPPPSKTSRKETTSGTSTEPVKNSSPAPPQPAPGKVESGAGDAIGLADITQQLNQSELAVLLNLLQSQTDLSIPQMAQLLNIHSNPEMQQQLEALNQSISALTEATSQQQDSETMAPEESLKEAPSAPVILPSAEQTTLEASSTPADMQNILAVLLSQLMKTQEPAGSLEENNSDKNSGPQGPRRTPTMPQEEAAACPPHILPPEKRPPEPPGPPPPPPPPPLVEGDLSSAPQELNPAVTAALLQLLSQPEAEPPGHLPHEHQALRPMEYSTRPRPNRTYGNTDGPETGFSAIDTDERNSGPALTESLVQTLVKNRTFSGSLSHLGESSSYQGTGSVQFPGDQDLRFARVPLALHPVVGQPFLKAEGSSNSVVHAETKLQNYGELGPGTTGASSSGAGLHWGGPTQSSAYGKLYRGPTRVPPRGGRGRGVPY
T3 sequence (O75909 whole entry partner): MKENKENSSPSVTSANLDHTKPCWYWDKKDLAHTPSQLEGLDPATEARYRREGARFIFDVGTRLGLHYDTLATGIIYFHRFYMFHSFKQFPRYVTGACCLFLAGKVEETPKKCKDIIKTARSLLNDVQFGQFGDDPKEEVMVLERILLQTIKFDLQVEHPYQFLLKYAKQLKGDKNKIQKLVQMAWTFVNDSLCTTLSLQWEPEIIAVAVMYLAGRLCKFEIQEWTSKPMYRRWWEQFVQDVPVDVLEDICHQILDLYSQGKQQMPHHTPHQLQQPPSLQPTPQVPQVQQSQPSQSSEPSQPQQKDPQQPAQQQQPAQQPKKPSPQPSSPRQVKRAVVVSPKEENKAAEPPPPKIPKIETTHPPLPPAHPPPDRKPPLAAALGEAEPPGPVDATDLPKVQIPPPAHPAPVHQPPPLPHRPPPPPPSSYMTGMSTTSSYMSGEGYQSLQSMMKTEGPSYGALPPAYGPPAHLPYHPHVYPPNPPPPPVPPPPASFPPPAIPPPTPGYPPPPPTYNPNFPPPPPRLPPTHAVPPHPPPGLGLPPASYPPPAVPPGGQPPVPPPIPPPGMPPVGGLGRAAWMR
Description: as §1

[6] = tested on: primary AML specimens; assay: Dose-response assays in primary AML specimens (6 days, CellTiterGlo); type: cell-based, human; details: Homo sapiens, 144 h
Outline: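 Primary AML cells in IMDM/15% BIT with SCF, FLT3L, IL3, G-CSF, SR1 and UM729 were exposed to 8-point 1:4 dilutions (10 μM to 0.5 nM) for 6 days. Viability came from CellTiterGlo luminescence, with % inhibition versus DMSO (0.1%) fitted by nonlinear regression.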

[7] = tested on: cyclin KeGFP; assay: Cyclin KeGFP reporter system (eGFP/mCherry MFI by flow cytometry);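 as to % degradation cyclin K-eGFP: 10 μM compound for 3 h relative to DMSO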; type: cell-based, H. sapiens
Outline: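 Degradation read as eGFP-to-mCherry MFI ratio relative to DMSO controls, from flow cytometry of the selected G7 clone of OCI-AML5 cells transduced with the cyclin KeGFP reporter.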

[8] = tested on: OCI-AML5 cells expressing shRNAs targeting CDK1, 2, 4, 7, 9, cyclin K; assay: Dose response in OCI-AML5 expressing shRNAs targeting CDK1, 2, 4, 7, 9, cyclin K or control; type: cell-based, H. sapiens

CN(C)c1ccc(CC(=O)Nc2ncc(SCc3cccnc3)s2)cc1 [S656]
potency upon CUL4A or CUL4B downregulation (for SNS-032, THZ531 also DDB1 depletion) ([1]; OCI-AML5, 4 days): impaired
Ratio shCUL4A/shCTRL ([1]; ratio of IC50 in shCUL4A vs shCTRL OCI-AML5 cells): 2.79
in vitro inhibitory activity for CDK9 ([2]; 1 μM): displays in vitro inhibitory activity
inhibition at 1 µM ([2]; single concentration 1 μM): 59%
IC50 ([3]; Homo sapiens, OCI-AML-5, 96 h, 4 days incubation, read-out: IC50 OCI-AML5): 743 nM
IC50 ([3]; Homo sapiens, OCI-AML-5, 96 h, OCI-AML5, regular media, 4 days, read-out: S656 IC50, Media): 949 nM
IC50 ([3]; OCI-AML5, regular media, 4 days, read-out: S656 IC50, Media): 675 nM and 712 nM
in vitro inhibitory activity for CDK1 ([4]; 1 μM): displays in vitro inhibitory activity
inhibition at 1 µM ([4]; single concentration 1 μM): 70%
in vitro inhibition of CDK12/Cyclin K activity ([5]; Log10 (uM) 0.30103): 29.97 and 30.05 and 16.95
in vitro inhibition of CDK12/Cyclin K activity ([5]; Log10 (uM) 1): 64.47 and 62.45 and 59.28
in vitro inhibition of CDK12/Cyclin K activity ([5]; Log10 (uM) 1.69897): 82.67 and 75.84 and 109.95
IC50 ([5]; read-out: IC50, in vitro inhibition of CDK12/Cyclin K activity): 6000 nM
IC50 ([6]; primary AML specimen 03H109, 6 days, read-out: IC50): 761 nM
IC50 ([6]; primary AML specimen 04H055, 6 days, read-out: IC50): 1040 nM
IC50 ([6]; primary AML specimen 04H096, 6 days, read-out: IC50): 846 nM
IC50 ([6]; primary AML specimen 04H138, 6 days, read-out: IC50): 1990 nM
IC50 ([6]; primary AML specimen 05H113, 6 days, read-out: IC50): 897 nM
IC50 ([6]; primary AML specimen 05H149, 6 days, read-out: IC50): 1380 nM
IC50 ([6]; primary AML specimen 05H193, 6 days, read-out: IC50): 999 nM
IC50 ([6]; primary AML specimen 06H088, 6 days, read-out: IC50): 1260 nM
IC50 ([6]; primary AML specimen 06H117, 6 days, read-out: IC50): 983 nM
IC50 ([6]; primary AML specimen 06H151, 6 days, read-out: IC50): 683 nM
IC50 ([6]; primary AML specimen 07H003, 6 days, read-out: IC50): 2190 nM
IC50 ([6]; primary AML specimen 07H131, 6 days, read-out: IC50): 2680 nM
IC50 ([6]; primary AML specimen 07H144, 6 days, read-out: IC50): 999 nM
IC50 ([6]; primary AML specimen 07H155, 6 days, read-out: IC50): 2440 nM
IC50 ([6]; primary AML specimen 08H018, 6 days, read-out: IC50): 2210 nM
IC50 ([6]; primary AML specimen 08H021, 6 days, read-out: IC50): 1010 nM
IC50 ([6]; primary AML specimen 08H056, 6 days, read-out: IC50): 2130 nM
IC50 ([6]; primary AML specimen 08H063, 6 days, read-out: IC50): 2380 nM
IC50 ([6]; primary AML specimen 08H085, 6 days, read-out: IC50): 1010 nM
IC50 ([6]; primary AML specimen 08H108, 6 days, read-out: IC50): 826 nM
IC50 ([6]; primary AML specimen 08H118, 6 days, read-out: IC50): 887 nM
IC50 ([6]; primary AML specimen 09H016, 6 days, read-out: IC50): 974 nM
IC50 ([6]; primary AML specimen 09H070, 6 days, read-out: IC50): 2240 nM
IC50 ([6]; primary AML specimen 10H014, 6 days, read-out: IC50): 852 nM
IC50 ([6]; primary AML specimen 10H046, 6 days, read-out: IC50): 972 nM
IC50 ([6]; primary AML specimen 10H107, 6 days, read-out: IC50): 1560 nM
IC50 ([6]; primary AML specimen 10H127, 6 days, read-out: IC50): 1440 nM
IC50 ([6]; primary AML specimen 10H161, 6 days, read-out: IC50): 1170 nM
IC50 ([6]; primary AML specimen 10H174, 6 days, read-out: IC50): 887 nM
IC50 ([6]; primary AML specimen 11H008, 6 days, read-out: IC50): 1450 nM
IC50 ([6]; primary AML specimen 11H019, 6 days, read-out: IC50): 1090 nM
IC50 ([6]; primary AML specimen 11H170, 6 days, read-out: IC50): 2330 nM
IC50 ([6]; primary AML specimen 11H217, 6 days, read-out: IC50): 1240 nM
IC50 ([6]; primary AML specimen 11H232, 6 days, read-out: IC50): 1130 nM
IC50 ([6]; primary AML specimen 12H033, 6 days, read-out: IC50): 2380 nM
IC50 ([6]; primary AML specimen 12H055, 6 days, read-out: IC50): 1390 nM
IC50 ([6]; primary AML specimen 12H148, 6 days, read-out: IC50): 1480 nM
IC50 ([6]; primary AML specimen 13H053, 6 days, read-out: IC50): 2190 nM
IC50 ([6]; primary AML specimen 15H045, 6 days, read-out: IC50): 680 nM
IC50 ([6]; primary AML specimen 17H065, 6 days, read-out: IC50): 1550 nM
IC50 ([6]; read-out: median IC50 in a panel of 40 primary AMLs, 6 days): 1210 nM
% cyclin KeGFP degradation ([7]; 3 h, 10 μM, compared to DMSO, OCI-AML5 G7 clone): 75%
MFI of cyclin KeGFP over mCherry ([7]; OCI-AML5 G7 clone, 3 h, 10 μM, normalized to DMSO (=100)): 23.8 and 23.9 and 23.3 and 23.2 and 22.8
% degradation cyclin K-eGFP ([7]; cyclin K-eGFP reporter): 75%
IC50 ([8]; Homo sapiens, OCI-AML-5, 96 h, OCI-AML5, 4 days, read-out: IC50, sh CDK1): 499 nM
IC50 ([8]; Homo sapiens, OCI-AML-5, 96 h, OCI-AML5, 4 days, read-out: IC50, sh CDK2): 842 nM
IC50 ([8]; Homo sapiens, OCI-AML-5, 96 h, OCI-AML5, 4 days, read-out: IC50, sh CDK4): 577 nM
IC50 ([8]; Homo sapiens, OCI-AML-5, 96 h, OCI-AML5, 4 days, read-out: IC50, sh CDK7): 791 nM
IC50 ([8]; Homo sapiens, OCI-AML-5, 96 h, OCI-AML5, 4 days, read-out: IC50, sh CDK9): 548 nM
IC50 ([8]; Homo sapiens, OCI-AML-5, 96 h, OCI-AML5, 4 days, read-out: IC50, sh Cyclin K): 175 nM
IC50 ([8]; Homo sapiens, OCI-AML-5, 96 h, OCI-AML5, 4 days, read-out: IC50, sh ctrl): 756 nM
IC50 ([8]; Homo sapiens, OCI-AML-5, OCI-AML5 expressing shRNA CCNK (cyclin K), read-out: IC50 shRNA CCNK): 194 nM
IC50 ([8]; Homo sapiens, OCI-AML-5, OCI-AML5 expressing shRNA CDK1, read-out: IC50 shRNA CDK1): 478 nM
IC50 ([8]; Homo sapiens, OCI-AML-5, OCI-AML5 expressing shRNA CDK2, read-out: IC50 shRNA CDK2): 794 nM
IC50 ([8]; Homo sapiens, OCI-AML-5, OCI-AML5 expressing shRNA CDK4, read-out: IC50 shRNA CDK4): 690 nM
IC50 ([8]; Homo sapiens, OCI-AML-5, OCI-AML5 expressing shRNA CDK9, read-out: IC50 shRNA CDK9): 548 nM
IC50 ([8]; OCI-AML5, 4 days, read-out: IC50, sh CDK1): 480 nM
IC50 ([8]; OCI-AML5, 4 days, read-out: IC50, sh CDK2): 928 nM and 685 nM
IC50 ([8]; OCI-AML5, 4 days, read-out: IC50, sh CDK4): 744 nM and 662 nM
IC50 ([8]; OCI-AML5, 4 days, read-out: IC50, sh CDK7): 774 nM and 662 nM
IC50 ([8]; OCI-AML5, 4 days, read-out: IC50, sh CDK9): 589 nM and 628 nM
IC50 ([8]; OCI-AML5, 4 days, read-out: IC50, sh Cyclin K): 288 nM and 186 nM
IC50 ([8]; OCI-AML5, 4 days, read-out: IC50, sh ctrl): 713 nM and 664 nM
Class ([8]; class from shRNA IC50 profile and cyclin K-eGFP degradation): mixed 1-2
